Laboratory results from patent publication US12516064B2, “Tetrahydropyridopyrimidines and related analogs for inhibiting YAP/TAZ-TEAD” (THE KATHOLIEKE UNIVERSITEIT LEUVEN, priority 2022, dated 2026).

Assays:
Type in all cases: cell-based
[1] = system: NCI-H2052; experiment: Mesothelioma cell line proliferation assay (NCI-H2052); conditions: Homo sapiens, 144 h; NCI-H2052 cells; 6 days with compound; cell viability by ATPlite
Procedure: (§1) Mesothelioma cell lines, NCI-H226 and NCI-H2052 (all sourced from the ATCC cell culture collection) are plated in 96-well plates (Corning® 96 Well White Polystyrene Microplate clear flat bottom, white polystyrene (TC-Treated)), at 1500 cells/well in full medium (RPMI 1640 ATCC modification with L-glutamine, HEPES, Phenol Red, Sodium Pyruvate, High glucose, Low sodium bicarbonate and 10% fetal bovine serum). Cells are incubated overnight at 37° C. in an incubator with 5% CO2. Then compounds, dissolved in DMSO, are added in dose-response. Cells are incubated with compound dilutions for another 6 days at 37° C. in an incubator with 5% CO2. Cell viability is quantitated using the ATPlite kit (Perkin-Elmer) and the luminescence is read-out using an Envision instrument (Perkin-Elmer). The amount of relative light units produced using the ATPlite kit is used to calculated percent of inhibition.
(§2) The activities of some example compounds are depicted in Table 9. The activity ranges A, B and C refer to EC50 values in the mesothelioma cell line proliferation assay as described as follows: “A”: EC50<1 μM; “B”: 1 μM≤EC50≤10 μM and “C”: EC50>10 μM; NT: not tested.

[2] = system: YAP/TAZ-TEAD transcription; experiment: Reporter gene assay for measuring the inhibition of YAP/TAZ-TEAD transcription; conditions: Homo sapiens, HEK-293T; Hek293T cells transiently transfected with TEAD-responsive element luciferase reporter; 24 hours incubation
Procedure: Hek293T cells are cultured in DMEM supplemented with 10% fetal bovine serum, Sodium pyruvate, Sodium bicarbonate, L-glutamine. The cells are harvested and transiently transfected with TEAD-responsive element luciferase reporter. Transfected cells are plated in 384-wells plate containing pre-diluted compounds. After 24 hours incubation at 37° C./5% CO2, assay plates were cooled down to RT and levelled to an equal volume per well, prior to the addition of 25 uL luciferase substrate SteadyLite (Perkin Elmer)/well. The plate was shaken for 10 min at 600 rpm, centrifuged for 1 min at 500 rpm and measured with an Envision reader (PerkinElmer). The amount of relative light units produced by the TEAD reporter is used to calculated percent of inhibition.
The percent of reporter inhibition was calculated in the presence of a positive control inhibitor (100% inhibition) versus a condition with the presence of the vehicle basal activity of the reporter (0% inhibition). The ability of a test compound to inhibit this activity was determined as: Percentage inhibition=[1−((RLU determined in the presence of vehicle−RLU determined for sample with test compound present) divided by (RLU determined in the presence of vehicle−RLU determined for sample with positive control inhibitor))]*100 The activities of example compounds tested are depicted in Table 8. The activity ranges A, B and C refer to IC50 values in the reporter gene assay as follows: “A”: EC50<1 μM; “B”: 1 μM≤EC50≤3.0 μM and “C”: EC50>3.0 μM, NT=not tested.

[3] = system: NCI-H226; experiment: Mesothelioma cell line proliferation assay (NCI-H226); conditions: Homo sapiens, 144 h; NCI-H226 cells; 6 days with compound; cell viability by ATPlite
Procedure: as §1, §2

SMILES | EC50 [1] [µM] | EC50 [2] [µM] | EC50 [3] [µM]
C=CC(=O)N1Cc2nc(Cc3ccccc3)nc(-c3ccn(C)n3)c2C1 [Cpd. No. 20, 1-(2-benzyl-4-(1-methyl-1H-pyrazol-3-yl)-5,7-dihydro-6H-pyrrolo[3,4-d]pyrimidin-6-yl)prop-2-en-1-one] | 1 to 10 | < 1 | < 1
C=CC(=O)N1CCc2c(nc(Cc3ccccc3)nc2-c2ccn(C)n2)C1 [Cpd. No. 32, 1-(2-benzyl-4-(1-methyl-1H-pyrazol-3-yl)-5,8-dihydropyrido[3,4-d]pyrimidin-7(6H)-yl)prop-2-en-1-one] | < 1 | < 1 | < 1
C=CC(=O)N1CCc2c(nc(Cc3ccccc3)nc2-c2ccn(Cc3cccnc3)n2)C1 [Cpd. No. 35, 1-(2-benzyl-4-(1-(pyridin-3-ylmethyl)-1H-pyrazol-3-yl)-5,8-dihydropyrido[3,4-d]pyrimidin-7(6H)-yl)prop-2-en-1-one] | 1 to 10 | < 1 | < 1
C=CC(=O)N1CCc2c(nc(-c3ccccc3)nc2-c2ccn(C)n2)C1 [Cpd. No. 39, 1-(4-(1-methyl-1H-pyrazol-3-yl)-2-phenyl-5,8-dihydropyrido[3,4-d]pyrimidin-7(6H)-yl)prop-2-en-1-one] | 1 to 10 | < 1 | < 1
C=CC(=O)N1CCc2c(nc(Cc3cccc(F)c3)nc2-c2ccn(C)n2)C1 [Cpd. No. 43, 1-(2-(3-fluorobenzyl)-4-(1-methyl-1H-pyrazol-3-yl)-5,8-dihydropyrido[3,4-d]pyrimidin-7(6H)-yl)prop-2-en-1-one] | 1 to 10 | < 1 | < 1
C=CC(=O)N1CCc2c(nc(Cc3cccc(C(F)(F)F)c3)nc2-c2ccn(C)n2)C1 [Cpd. No. 46, 1-(4-(1-methyl-1H-pyrazol-3-yl)-2-(3-(trifluoromethyl)benzyl)-5,8-dihydropyrido[3,4-d]pyrimidin-7(6H)-yl)prop-2-en-1-one] | 1 to 10 | < 1 | < 1
C=CC(=O)N1CCc2c(nc(Cc3ccc(C(F)(F)F)cc3)nc2-c2ccn(Cc3cccnc3)n2)C1 [Cpd. No. 49, 1-(4-(1-(pyridin-3-ylmethyl)-1H-pyrazol-3-yl)-2-(4-(trifluoromethyl)benzyl)-5,8-dihydropyrido[3,4-d]pyrimidin-7(6H)-yl)prop-2-en-1-one] | > 10 | < 1 | < 1
C=CC(=O)N1CCc2c(nc(-c3ccc(F)cc3)nc2-c2ccn(C)n2)C1 [Cpd. No. 51, 1-(2-(4-fluorophenyl)-4-(1-methyl-1H-pyrazol-3-yl)-5,8-dihydropyrido[3,4-d]pyrimidin-7(6H)-yl)prop-2-en-1-one] | > 10 | < 1 | < 1
C=CC(=O)N1CCc2c(nc(-c3cccc(F)c3)nc2-c2ccn(C)n2)C1 [Cpd. No. 52, 1-(2-(3-fluorophenyl)-4-(1-methyl-1H-pyrazol-3-yl)-5,8-dihydropyrido[3,4-d]pyrimidin-7(6H)-yl)prop-2-en-1-one] | 1 to 10 | < 1 | < 1
C=CC(=O)N1CCc2c(nc(-c3ccc(F)c(F)c3)nc2-c2ccn(C)n2)C1 [Cpd. No. 53, 1-(2-(3,4-difluorophenyl)-4-(1-methyl-1H-pyrazol-3-yl)-5,8-dihydropyrido[3,4-d]pyrimidin-7(6H)-yl)prop-2-en-1-one] | 1 to 10 | < 1 | < 1
C=CC(=O)N1CCc2c(nc(-c3ccc(C(F)(F)F)cc3)nc2-c2ccn(C)n2)C1 [Cpd. No. 54, 1-(4-(1-methyl-1H-pyrazol-3-yl)-2-(4-(trifluoromethyl)phenyl)-5,8-dihydropyrido[3,4-d]pyrimidin-7(6H)-yl)prop-2-en-1-one] | 1 to 10 | < 1 | < 1
C=CC(=O)N1CCc2c(nc(-c3cccc(C(F)(F)F)c3)nc2-c2ccn(C)n2)C1 [Cpd. No. 55, 1-(4-(1-methyl-1H-pyrazol-3-yl)-2-(3-(trifluoromethyl)phenyl)-5,8-dihydropyrido[3,4-d]pyrimidin-7(6H)-yl)prop-2-en-1-one] | 1 to 10 | < 1 | < 1
C=CC(=O)N1CCc2c(nc(-c3ccccc3)nc2-c2ccn(C(F)F)n2)C1 [Cpd. No. 65, 1-(4-(1-(difluoromethyl)-1H-pyrazol-3-yl)-2-phenyl-5,8-dihydropyrido[3,4-d]pyrimidin-7(6H)-yl)prop-2-en-1-one] | 1 to 10 | < 1 | 1 to 10
C=CC(=O)N1CCc2c(nc(-c3ccc(C(F)(F)F)cc3)nc2-c2ccn(C(F)F)n2)C1 [Cpd. No. 69, 1-(4-(1-(difluoromethyl)-1H-pyrazol-3-yl)-2-(4-(trifluoromethyl)phenyl)-5,8-dihydropyrido[3,4-d]pyrimidin-7(6H)-yl)prop-2-en-1-one] | 1 to 10 | < 1 | < 1
C=C(F)C(=O)N1CCc2c(nc(-c3ccc(C(F)(F)F)cc3)nc2-c2ccn(C)n2)C1 [Cpd. No. 71, 2-fluoro-1-(4-(1-methyl-1H-pyrazol-3-yl)-2-(4-(trifluoromethyl)phenyl)-5,8-dihydropyrido[3,4-d]pyrimidin-7(6H)-yl)prop-2-en-1-one] | > 10 | < 1 | < 1
C=CC(=O)N1CCc2c(nc(-c3ccc(C(F)(F)F)cc3)nc2-c2ccn(CCOC)n2)C1 [Cpd. No. 73, 1-(4-(1-(2-methoxyethyl)-1H-pyrazol-3-yl)-2-(4-(trifluoromethyl)phenyl)-5,8-dihydropyrido[3,4-d]pyrimidin-7(6H)-yl)prop-2-en-1-one] | 1 to 10 | < 1 | < 1
C/C=C/C(=O)N1CCc2c(nc(-c3ccc(C(F)(F)F)cc3)nc2-c2ccn(C)n2)C1 [Cpd. No. 74, (E)-1-(4-(1-methyl-1H-pyrazol-3-yl)-2-(4-(trifluoromethyl)phenyl)-5,8-dihydropyrido[3,4-d]pyrimidin-7(6H)-yl)but-2-en-1-one] | 1 to 10 | < 1 | < 1
CCC(=O)N1CCc2c(nc(-c3ccc(C(F)(F)F)cc3)nc2-c2ccn(C)n2)C1 [Cpd. No. 85, 1-(4-(1-methyl-1H-pyrazol-3-yl)-2-(4-(trifluoromethyl)phenyl)-5,8-dihydropyrido[3,4-d]pyrimidin-7(6H)-yl)propan-1-one] |  | < 1 | 
CCC(=O)N1CCc2c(nc(-c3ccc(C(F)(F)F)cc3)nc2-c2cn(C)nn2)C1 [Cpd. No. 91, 1-(4-(1-methyl-1H-1,2,3-triazol-4-yl)-2-(4-(trifluoromethyl)phenyl)-5,8-dihydropyrido[3,4-d]pyrimidin-7(6H)-yl)propan-1-one] |  | 1 to 3 | 
CCC(=O)N1CCc2c(nc(-c3ccc(C(F)(F)F)cc3)nc2-c2cnn(C)n2)C1 [Cpd. No. 93, 1-(4-(2-methyl-2H-1,2,3-triazol-4-yl)-2-(4-(trifluoromethyl)phenyl)-5,8-dihydropyrido[3,4-d]pyrimidin-7(6H)-yl)propan-1-one] |  | 1 to 3 | 
C/C=C/C(=O)N1CCc2c(nc(C3CCC(F)(F)CC3)nc2-c2ccn(C)n2)C1 [Cpd. No. 95, (E)-1-(2-(4,4-difluorocyclohexyl)-4-(1-methyl-1H-pyrazol-3-yl)-5,8-dihydropyrido[3,4-d]pyrimidin-7(6H)-yl)but-2-en-1-one] |  | < 1 | 
